How the values were obtained:
[1] = tested on: Sprague Dawley rats with chronic constriction injury (CCI) of the sciatic nerve; assay: Thermal hyperalgesia paw withdrawal latency after chronic constriction injury of the sciatic nerve; assay type: in vivo; settings: rat CCI model; gabapentin 90 mg/kg subcutaneous 1 hour prior to each assessment; days 7, 14, 21 post-CCI; injured (rt) limb; vs vehicle (PBS); 2-factor ANOVA, p<0.0001
Procedure: (§1) Rats were treated with a subcutaneous human equivalent dose of 885 mcg of gabapentin 1 hour prior to testing.
(§2) Eight Sprague Dawley rats were given a chronic constriction injury (CCI) of the sciatic nerve. The CCI was induced as described by Bennett and Xie (1988). Animals were anesthetized with pentobarbital (60 mg/kg). The right common sciatic nerve was exposed by blunt dissection between the femoral biceps and quadriceps muscle and freed from adherent tissue. Four loose ligatures were placed 1 mm apart using 4-0 chromic gut absorbable sutures. Four animals received a subcutaneous injection of gabapentin (90 mg/kg) 1 hour prior to each post-CCI pain assessment (BP) and four animals received vehicle (PBS) injections. Thermal hyperalgesia paw withdrawal latency response of the injured (rt) limb was measured 2 days before the CCI and on days 7, 14, and 21 post-CCI surgery. This is considered a model of neuropathic pain. FIG. 3 is a bar graph illustration showing that Von Frey withdrawal threshold is increased by gabapentin in rats with an injury to the sciatic nerve.

[2] = tested on: Sprague Dawley rats with chronic constriction injury (CCI) of the sciatic nerve; assay: Mechanical paw withdrawal (allodynia) Von Frey threshold after chronic constriction injury of the sciatic nerve; assay type: in vivo; settings: rat CCI model; gabapentin 90 mg/kg subcutaneous 1 hour prior to each assessment; days 8, 15, 22 post-CCI; vs vehicle (PBS); 2-factor ANOVA, p<0.001
Procedure: as §1, §2
Mechanical paw withdrawal (allodynia) thresholds of each animal were measured the day before the CCI and on days 8, 15, and 22. FIG. 4 is a bar graph illustration showing that thermal withdrawal latency is increased by gabapentin in rats with an injury to the sciatic nerve. This is considered a model of tactile somatic pain.

NCC1(CC(=O)O)CCCCC1 [gabapentin, 2-[1-(aminomethyl)cyclohexyl]acetic acid]
Thermal withdrawal latency, expressed as a percent of baseline [1]: significantly higher
Von Frey threshold, expressed as a percent of baseline [2]: significantly higher

Reference: US9968572B2, “Clonidine and GABA compounds in a biodegradable polymer carrier” (Warsaw Orthopedic, Inc., priority 2010, dated 2018)
